PubChem BioAssay (NCI)
Values joined by “and” are separate entries in the source; they are usually repeats but may differ in a detail not shown here. Identical values can stand only once.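 Compound exposure: 48 hours, 5 concentrations, 96-well plates. GI50: concentration for 50% inhibition of growth. TGI: concentration producing complete growth inhibition.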

What was measured:
Experiment in all cases: NCI-60 cell line screen, 48 h
[1] = test system: UO-31 renal
[2] = test system: MALME-3M melanoma
[3] = test system: RPMI-8226 leukemia
[4] = test system: HL-60(TB) leukemia
[5] = test system: NCI/ADR-RES ovarian
[6] = test system: CAKI-1 renal
[7] = test system: A498 renal
[8] = test system: SW-620 colon
[9] = test system: SR leukemia
[10] = test system: NCI-H460 lung
[11] = test system: PC-3 prostate
[12] = test system: T-47D breast
[13] = test system: KM12 colon
[14] = test system: OVCAR-8 ovarian
[15] = test system: CCRF-CEM leukemia
[16] = test system: U251 CNS
[17] = test system: LOX IMVI melanoma
[18] = test system: K-562 leukemia
[19] = test system: HCC-2998 colon
[20] = test system: A549 NSCLC
[21] = test system: SK-MEL-28 melanoma
[22] = test system: HT29 colon
[23] = test system: HCT-15 colon
[24] = test system: BT-549 breast
[25] = test system: DU-145 prostate
[26] = test system: MDA-MB-231 breast
[27] = test system: M14 melanoma
[28] = test system: 786-0 renal
[29] = test system: SK-MEL-5 melanoma
[30] = test system: NCI-H522 lung
[31] = test system: SK-OV-3 ovarian
[32] = test system: SF-295 CNS
[33] = test system: HCT-116 colon
[34] = test system: SF-539 CNS
[35] = test system: NCI-H23 lung
[36] = test system: MCF7 breast
[37] = test system: HS 578T breast
[38] = test system: RXF 393 renal
[39] = test system: SNB-19 CNS
[40] = test system: SNB-75 CNS
[41] = test system: OVCAR-5 ovarian
[42] = test system: SF-268 CNS
[43] = test system: OVCAR-4 ovarian
[44] = test system: SK-MEL-2 melanoma
[45] = test system: SN12C renal
[46] = test system: MOLT-4 leukemia
[47] = test system: HOP-62 NSCLC
[48] = test system: MDA-MB-435
[49] = test system: EKVX NSCLC
[50] = test system: NCI-H226 lung
[51] = test system: MDA-N
[52] = test system: OVCAR-3 ovarian
[53] = test system: ACHN renal
[54] = test system: UACC-62 melanoma
[55] = test system: UACC-257 melanoma
[56] = test system: IGROV1 ovarian
[57] = test system: COLO 205 colon
[58] = test system: TK-10 renal

## CN1CCN(c2ccc3[nH]c(C4=C(O)c5nc(CCl)n(C)c5C(=O)C4=O)nc3n2)CC1
[1]
  GI50: 21.8 µM
  TGI: 13.3 µM and > 100 µM
[2]
  GI50: 13 µM
  TGI: 11.4 µM and 30 µM
[3]
  GI50: 3.14 µM
  TGI: 50 µM and 15.2 µM
[4]
  GI50: 2.87 µM
  TGI: > 50 µM and 8.97 µM
[5]
  GI50: 88.6 µM
  TGI: > 100 µM
[6]
  GI50: 24.2 µM
  TGI: 37.1 µM and 74.4 µM
[7]
  TGI: 22.1 µM
[8]
  GI50: 3.61 µM
  TGI: 50 µM and > 100 µM
[9]
  TGI: 50 µM
[10]
  TGI: 49.3 µM
[11]
  GI50: 11.7 µM
  TGI: 50 µM and 29.1 µM
[12]
  GI50: 2.15 µM
  TGI: 3.99 µM and 6.95 µM
[13]
  GI50: 15.9 µM
  TGI: 21 µM and 35.9 µM
[14]
  GI50: 4.83 µM
  TGI: 16.2 µM and 29.2 µM
[15]
  GI50: 15 µM
  TGI: > 50 µM and 36.4 µM
[16]
  GI50: 2.03 µM
  TGI: 16.3 µM and 4.12 µM
[17]
  GI50: 3.07 µM
  TGI: 15.2 µM and 7.43 µM
[18]
  GI50: 2.84 µM
  TGI: 50 µM and > 100 µM
[19]
  TGI: 21.4 µM
[20]
  TGI: 50 µM and > 100 µM
[21]
  GI50: 16.1 µM
  TGI: 50 µM and 34.8 µM
[22]
  GI50: 13.7 µM
  TGI: 25.9 µM and 37.1 µM
[23]
  TGI: 50 µM and > 100 µM
[24]
  GI50: 17.4 µM
  TGI: 19.3 µM and 40.4 µM
[25]
  GI50: 21.9 µM
  TGI: 22.4 µM and 67 µM
[26]
  GI50: 3.99 µM
  TGI: 25 µM and 14.8 µM
[27]
  GI50: 19.6 µM
  TGI: 20.1 µM and 52.2 µM
[28]
  GI50: 6.05 µM
  TGI: 50 µM and > 100 µM
[29]
  TGI: 50 µM
[30]
  GI50: 3.54 µM
  TGI: 3.29 µM and 12.2 µM
[31]
  GI50: 19.8 µM
  TGI: 50 µM and 51.6 µM
[32]
  GI50: 24 µM
  TGI: 50 µM and 56.3 µM
[33]
  GI50: 15.2 µM
  TGI: 16.1 µM and > 100 µM
[34]
  GI50: 2.17 µM
[35]
  GI50: 18.9 µM
  TGI: 30.4 µM and 44.3 µM
[36]
  TGI: 18.5 µM
[37]
  TGI: 75.5 µM
[38]
  GI50: 3.49 µM
  TGI: 9.92 µM and 16.6 µM
[39]
  GI50: 11.8 µM
  TGI: 16.7 µM and 32.6 µM
[40]
  TGI: 18 µM
[41]
  GI50: 20 µM
  TGI: 34.5 µM and 52.7 µM
[42]
  TGI: 49.1 µM
[43]
  TGI: 44.7 µM and 33.7 µM
[44]
  TGI: 23.5 µM
[45]
  GI50: 16.9 µM
  TGI: 20.5 µM and > 100 µM
[46]
  GI50: 2.25 µM
  TGI: 50 µM and 7.68 µM
[47]
  GI50: 20.7 µM
  TGI: 19.7 µM and 53.5 µM
[48]
  GI50: 12.6 µM
  TGI: 19.3 µM and 30.8 µM
[49]
  GI50: 15.9 µM
  TGI: 36.9 µM and 40.1 µM
[50]
  GI50: 18.3 µM
  TGI: 36.2 µM and 37.7 µM
[51]
  GI50: 26.5 µM
  TGI: 17.4 µM and > 100 µM
[52]
  TGI: 31.3 µM and 68.6 µM
[53]
  GI50: 5.13 µM
  TGI: 30.7 µM and 43.1 µM
[54]
  GI50: 2.46 µM
  TGI: 19.4 µM and 7.37 µM
[55]
  TGI: 31.9 µM
[56]
  GI50: 24.5 µM
  TGI: 16 µM and 47.9 µM
[57]
  GI50: 1.79 µM
  TGI: 28.1 µM and 3.62 µM

## CC(C)/C=N\N1C(N)=C(C#N)C(C#N)(C#N)C1C(C)C (stereo not given)
[1]
  TGI: > 100 µM
[2]
  TGI: > 100 µM
[3]
  TGI: > 100 µM
[4]
  TGI: 91.7 µM
[5]
  TGI: 82.8 µM
[6]
  TGI: > 100 µM
[7]
  TGI: > 100 µM
[8]
  TGI: > 100 µM
[9]
  TGI: 82.9 µM
[11]
  TGI: > 100 µM
[12]
  TGI: > 100 µM
[58]
  TGI: > 100 µM
[13]
  TGI: > 100 µM
[14]
  TGI: 58.1 µM
[15]
  TGI: 93.2 µM
[16]
  TGI: > 100 µM
[17]
  TGI: > 100 µM
[18]
  TGI: > 100 µM
[19]
  TGI: > 100 µM
[20]
  TGI: > 100 µM
[21]
  TGI: > 100 µM
[22]
  TGI: 80 µM
[23]
  TGI: > 100 µM
[24]
  TGI: 92.3 µM
[25]
  TGI: > 100 µM
[26]
  TGI: > 100 µM
[27]
  TGI: > 100 µM
[28]
  TGI: > 100 µM
[29]
  TGI: > 100 µM
[30]
  TGI: > 100 µM
[31]
  TGI: > 100 µM
[32]
  TGI: > 100 µM
[33]
  TGI: > 100 µM
[34]
  TGI: 64.8 µM
[35]
  TGI: > 100 µM
[36]
  TGI: > 100 µM
[37]
  TGI: > 100 µM
[38]
  TGI: > 100 µM
[39]
  TGI: > 100 µM
[40]
  TGI: > 100 µM
[41]
  TGI: > 100 µM
[42]
  TGI: > 100 µM
[43]
  TGI: > 100 µM
[44]
  TGI: > 100 µM
[45]
  TGI: > 100 µM
[46]
  TGI: > 100 µM
[47]
  TGI: > 100 µM
[48]
  TGI: 58.6 µM
[49]
  TGI: > 100 µM
[50]
  TGI: > 100 µM
[51]
  TGI: 69.8 µM
[52]
  TGI: > 100 µM
[53]
  TGI: > 100 µM
[54]
  TGI: 76.5 µM
[55]
  TGI: > 100 µM
[56]
  TGI: > 100 µM
[57]
  TGI: > 100 µM
